From paper PMC7890489, “Study on pharmacological properties and cell absorption metabolism of novel daidzein napsylates” (Royal Society Open Science, 2021)
Converted amounts (≈) assume the structure as drawn. “And” between values parts separate entries of the source, which are not always exact repeats. Identical values can stand only once. Like-named read-outs stand apart in the source and are kept apart here.

Columns and labels:
[1] = water with a pH of 7.8; cited from earlier work
[2] = parameters: method as in ref 9 = [9]; 9 Chou F 2005 Pharmacokinetics of daidzein and its precursors . Shenyang, People's Republic of China : Shenyang Pharmaceutical University .; conditions: rats, intragastric administration of DAI solution; cited from earlier work
[3] = at pH 7.4, 410 K, DAI ref 16, cited from earlier work
[4] = cited from earlier work
[5] = parameters: key: —: Cannot be detected; conditions: DAI ref 14; cited from earlier work
[6] = Apparent lipid-water (n-octanol/water) partition coefficient by HPLC; assay type: physicochemical; parameters: key: —: Cannot be detected; conditions: for lgP: 37 °C, HPLC of aqueous phase; for apparent lipid-hydro partition coefficient found: HPLC
Experimental: (§1) Mobile phase: acetonitrile-methanol (1 : 1); flow rate: 1.0 ml min^−1; injection volume: 20 µl; wavelength: 230 nm or 254 nm; column temperature: 25°C.
DD4 (5.1 mg) was dissolved in 50 ml of water-saturated n-octanol solution to prepare a solution with a concentration of 102 mg l^−1. Solution (2 ml) and water-saturated n-octanol solution (2 ml) were added to a plugged 10 ml tube. The prepared sample solution was placed in a shaker and shaken to equilibrium overnight in the dark at constant temperature (37 ± 0.1)°C. The lower aqueous phase was taken and analysed by HPLC after centrifugation at a speed of 3000 r min^−1 for 10 min. The drug concentration in the aqueous phase (ρw) was calculated via the standard curve according to the peak area. DD5 (4.5 mg) was dissolved in 50 ml of water-saturated n-octanol solution to prepare a solution with a concentration of 90 mg l^−1. Other methods were the same as those for DD4 [14].

[7] = test system: vascular smooth muscle cells; test: Cytotoxicity by MTT assay; assay type: cell-based; conditions: 300 ug/mL
Source text: […] 2) Please list the full name of “HAVSMCs”at the first time it appears.
We have listed the full name of “HAVSMCs” as its first appearance in the abstract of […]
[…] 3) Please number the carbon atoms of the compounds.
[…] 4) Line 19-36: The abstract can reflect all aspects of the work, but it is a bit long and too detailed. The authors should rephrase the abstract for a more concise […]
We have rewritten the section of abstract and tried to make it as concise as possible.
[…] 5) As far as I'm aware, daidzein as a biologically active natural product has been used for curing angiocardiopathy. But whether the synthesized daidzeinnapsylates have significant toxic side effects remain unknown. So, in vitro cytotoxicity […]
A549, HeLa cells) need be performed.
The cytotoxicity of DD4 and DD5 was determined by MTT assay in our lab before […]
the two compounds was less than 10% at the concentration of 300 ug/mL. It is considered that the compound is not toxic to vascular smooth muscle cells at this concentration. Therefore, the dosing concentrations of DD4 and DD5 were 171 and 120 ug/mL, respectively, to investigate the absorption and metabolism of drugs by […]
6)Please attach the 1H-NMR specturm of DD4 and DD5 in supporting information;

[8] = Solubility in water, methanol, cyclohexane and ethyl acetate by HPLC; assay type: physicochemical
Experimental: as §1
Five millilitres of water, methanol, cyclohexane and ethyl acetate was added to test tubes, and then samples (DD4 or DD5) were added. These solutions were shaken at constant temperature (37 ± 0.1)°C for 48 h. The supernatant was taken to determine its solubility with HPLC [14]. Solutions of tested sample beyond the linear concentration range were diluted with methanol for determination.

[9] = as above; assay type: physicochemical; conditions: organic solvent or mixture, thermodynamic from solid, head: hexane (text: cyclohexane), 37 °C, shaken 48 h
[10] = test system: human aortic vascular smooth muscle cells (HAVSMCs); test: Cell metabolism in HAVSMCs by HPLC-MS; assay type: in vitro ADME; conditions: for metabolite identified (chemical name): HAVSMC lysate, 24 h incubation, HPLC-MS negative ion mode; for metabolites found in cell lysate: HAVSMCs incubated 24 h, HPLC-MS, also found in supernatant; for redox products in HAVSMCs: preliminary analysis of metabolic components
Experimental: (§2) HAVSMCs were obtained from resuscitation in cryopreservation tubes. HAVSMCs at passages 3–10 were seeded at a density of 10^5 in 6-well plates, 2 ml per well. The cells were cultured at 37°C in a 5% carbon dioxide incubator for 24 h to adhere to the cell wall; cells were cultured in serum-free DMEM for 24 h. The cells were synchronized, the supernatant was carefully aspirated and different concentrations of drug solution were added to the DMEM culture medium containing 10% serum. Equal amounts of DMEM culture medium without drugs were added to the blank group. Each group was set up in triplicate and further cultured. The cultures were terminated at 0.5, 1, 6, 12, 24 or 48 h. Cell culture supernatants were collected and stored at −80°C for further analysis.
Mobile phase: methanol-formic acid (1 : 1); flow rate: 0.5 ml min^−1; injection volume: 10 µl; wavelength: 254 nm; column temperature: 25°C.
A triple quadrupole tandem precision mass spectrometer (Agilent 6430) with an […] source and a negative ion mode was used for precise determination. The full mass spectrum data were obtained in the range of m/z 50–1000. The optimal mass spectrum parameters were as follows: the capillary voltage was 4.0 kV; the injection cone voltage was 35 V; the desolvation gas flow (N2) rate was 900 l h^−1; the injection cone gas flow (N2) rate was 50 l h^−1; the desolvation temperature was 350°C; the ion source temperature was 150°C; the collision gas in collision induced dissociation (CID) mode was helium with high purity; the inlet pressure was set at 40 psi; the CID collision energy of the standard was 5–35 eV and the cracking voltage was 135 V.
The cell supernatant was thawed and vortexed for 0.5 min. Cell supernatant (50 µl) and […] (50 µl) were added to a 2 ml centrifuge tube and vortexed for 3 min. Ammonium dihydrogen phosphate (100 µl, 0.4%) and 1 ml of ethyl acetate were added, and the sample was vortexed for 3 min. The mixture was centrifuged at 3000 r min^−1 for 10 min. The supernatant (95 µl) was aspirated and dried by N2 flow. […] (500 µl) was added and the sample was vortexed for 0.5 min. After filtration over a 0.45 µm organic membrane, HPLC-MS analysis was carried out.
Cells from the −80°C stock were thawed at room temperature, and 1 ml of thawed cell lysate was added into each well of a 6-well plate. From each group, 0.5 ml of cell lysate was taken; 50 µl of […], 100 µl of ammonium dihydrogen phosphate (0.4%) and 1 ml of ethyl acetate were added and samples were vortexed for 3 min. Lysate (95 µl) was aspirated and dried by N2 flow. […] (500 µl) was added and samples were vortexed for 0.5 min. After filtration over a 0.45 µm organic membrane, HPLC-MS analysis was carried out.

[11] = test system: human aortic vascular smooth muscle cells (HAVSMCs); test: Drug absorption in human aortic vascular smooth muscle cells (HPLC of cell supernatant); assay type: in vitro ADME; conditions: for value (drug concentration in cell supernatant): dosing DD4 171, DD5 120 ug/mL; for maximum cell absorption rate relative to DAI: compared with DAI; for absorptivity (maximum absorption rate): maximum (at 1 h)
Experimental: as §2
Cell supernatants were thawed at room temperature and vortexed for 1 min. To 50 µl of the cell supernatant, 50 µl of methanol was added and the mixtures were mixed uniformly by eddy current. Ethyl acetate (1 ml) was added to the mixture and vortexed for 3 min. Ethyl acetate was separated by cooled centrifugation at 3000 r min^−1 and dried with nitrogen, and the residue was dissolved in 500 µl of methanol before injection for analysis.
Mobile phase: methanol-phosphoric acid solution (0.4%) (1 : 1); flow rate: 0.5 ml min^−1; injection volume: 10 µl; wavelength: 230 nm or 254 nm; column temperature 25°C.
Cell supernatants were thawed and vortexed for 1 min. Drug-added supernatant (50 µl) was treated by the same method as the pre-treatment of cell samples described in §4.2.
The absorption and utilization rates of DD4 and DD5 were calculated by the formula (6.1), with the reduction of drug concentration in the cell culture medium taken as the absorption amount of drug by cells. The initial drug concentration was c0, and the concentration in the cell supernatant at other time points is denoted as c. […] With increasing time, the cell absorption rate of the drug was maintained at about 60%. The main reason for the differences in absorption of DD4 and DD5 might be the length of the substituent group (methyl, ethyl) on the 7-position:6.1 absorption rate=c0−c/c0×100%.

[12] = parameters: method as in ref 23 = [23]; 23 Zhang ZT , Liu QG , Liu XH , Yang BL , Duan YF , Gao ZW , Yu KB 2002 Synthesis, crystal structure and biological activity of monomethylated daidzein sulfonates . Acta Chim. Sinica 60 , 1846 – 1853; conditions: compared with DAI; cited from earlier work
[13] = organic solvent or mixture, thermodynamic from solid, methanol, 37 °C, shaken 48 h, HPLC, read-out: solubility methanol
[14] = thermodynamic from solid, water, 37 °C, shaken 48 h, HPLC, read-out: solubility water
[15] = water, Table 5, read-out: solubility in water

Compound | lgP [6] | apparent lipid-hydro partition coefficient found [6] | cell inhibition rate [7] | solubility at 48 h [8, 13] | solubility at 48 h [8, 14] | solubility in water ([8]; water, 37 °C) | solubility at 48 h [8, 15] | solubility at 48 h [9] | metabolites found in cell lysate [10] | redox products in HAVSMCs [10] | time of peak (maximum) absorption [11] | value (drug concentration in cell supernatant) ([11]; 0.5 h) | value (drug concentration in cell supernatant) ([11]; 1 h) | value (drug concentration in cell supernatant) ([11]; 6 h) | value (drug concentration in cell supernatant) ([11]; 12 h) | value (drug concentration in cell supernatant) ([11]; 24 h) | value (drug concentration in cell supernatant) ([11]; 48 h) | maximum cell absorption rate relative to DAI [11] | absorptivity (maximum absorption rate) [11] | melting point | other results
O=C(O)COc1ccc(-c2coc3cc(OCCO)ccc3c2=O)cc1 [4-oxoacetic acid-7-hydroxyethoxy-daidzein] |  |  |  |  |  |  |  |  |  |  |  |  |  |  |  |  |  |  |  |  | solubility in water [1]: 54.28 µg/mL (≈ 152 µM)
O=c1c(-c2ccc(O)cc2)coc2cc(O)ccc12 [DAI, 4′, 7-dihydroxyisoflavone] |  |  |  |  |  |  |  |  |  |  |  |  |  |  |  |  |  |  |  |  | absolute bioavailability calculated on the basis of free DAI [2]: 12.8%; dissociation constant (percentage of drug prototypes) calculated value [3]: 10.41%; molecular polar surface area/two-dimensional calculated value [3]: 66.76 Å^2; molecular surface area/three-dimensional calculated value [3]: 315.07 Å^2; polarizability calculated value [3]: 26.21; refractivity calculated value [3]: 69.70; H-bond accepter site ([3]; first figure of site/count): 5; H-bond accepter count ([3]; second figure of site/count): 4; solubility in ethyl acetate ([4]; Table 5, DAI ref 16): 0.13 ± 0.11 µg/mL (≈ 0.511 µM); solubility in cyclohexane ([4]; cyclohexane, DAI ref 14): could not be determined; solubility in water ([4]; water, DAI ref 14): too poor to be detected; lgP [5]: —^b
COc1ccc2c(=O)c(-c3ccc(OS(=O)(=O)c4ccc5ccccc5c4)cc3)coc2c1 [DD4] | —^b | —^b | less than 10% | 824 ± 19.3 µg/mL (≈ 1800 µM) | < 0.059 µg/mL | too poor to be detected | < 0.059 µg/mL | 509 ± 49 µg/mL (≈ 1110 µM) | Four metabolites were found | no redox products | 1 h | 96.97 ± 15.57 µg/mL | 20.62 µg/mL and 20.62 ± 0.71 µg/mL | 110.70 ± 4.98 µg/mL | 82.48 ± 3.00 µg/mL | 71.01 ± 34.97 µg/mL | 111.28 ± 1.72 µg/mL | 4.3 times and 4.3–4.5 times | 87.97% | 144 to 156 °C | solubility at 48 h ([8]; ethyl acetate, 37 °C, shaken 48 h, HPLC, read-out: solubility ethanoate (ethyl acetate)): 36300 µg/mL (≈ 79200 µM); metabolite identified (chemical name) [10]: daidzein-4'-naphthalene sulphonate
CCOc1ccc2c(=O)c(-c3ccc(OS(=O)(=O)c4ccc5ccccc5c4)cc3)coc2c1 [DD5] | —^b | —^b | less than 10% | 2470 ± 72.4 µg/mL (≈ 5230 µM) | < 0.059 µg/mL | too poor to be detected | < 0.059 µg/mL | 69.7 ± 20.8 µg/mL (≈ 148 µM) | Six metabolites were found | no redox products | 1 h | 88.31 ± 4.25 µg/mL | 11.59 ± 0.08 µg/mL | 44.60 ± 3.91 µg/mL | 47.13 ± 15.99 µg/mL | 50.34 ± 1.31 µg/mL | 29.29 ± 2.50 µg/mL | 4.5 times and 4.3–4.5 times | 90.34% | 151 to 153 °C | metabolite identified (chemical name) ([10]; metabolite DAI): daidzein; metabolite identified (chemical name) ([10]; metabolite M2): daidzein-4'-naphthalene sulphonate; metabolite identified (chemical name) ([10]; metabolite M4 or/and M4a): daidzein-4'-glucoside or daidzein-7-glucoside; metabolite identified (chemical name) ([10]; metabolite M5): 7-ethyldaidzein; metabolite identified (chemical name) ([10]; metabolite M6): daidzein-7-ethyl-4'-glucoside; metabolite identified (chemical name) ([10]; metabolite M7): daidzein-7-ethyl-4'-sulphonic acid
sodium daidzein sulphonate |  |  |  |  |  |  |  |  |  |  |  |  |  |  |  |  |  |  |  |  | anti-hypoxic-ischaemic effect [12]: obviously better than that of DAI
